Experimental data from publication PMC12567515, “Assessment of Carrier-Free Metallacarboranes for Targeted Radiation Therapies PBFT and BNCT: Comparative Cellular Effects and Dosimetry Studies with [o-FESAN]^− in Breast Cancer Cells” (Pharmaceuticals, 2025).

How the values were obtained:
[1] = tested on: MDA-MB-231 xenograft-bearing nude mice; test: Biodistribution (boron by ICP-OES) in MDA-MB-231 xenograft model; format: in vivo, mouse; conditions: 7.5 mg B/kg i.v., 1 and 4 h post-injection
Description: The biodistribution of Na[o-FESAN] (7.5 mg B/kg, i.v.) was evaluated in an MDA-MB-231 breast cancer xenograft model, and the results at 1 and 4 h are shown in Figure 2.
All animal experiments were approved by the Animal Care and Use Committee of the Institute of Science Tokyo and performed in accordance with the Guidelines for the Care and Use of Laboratory Animals as stated by the Institute of Science Tokyo (Approval number “D2021007”). All animals were maintained under controlled conditions of temperature and humidity with ad libitum water and feeding. MDA-MB-231 tumor-bearing mice (Balb/cSlc-nu/nu, female, 5–6 weeks old, 14–20 g, Sankyo Labo Service Co., Ltd., Hamamatsu, Japan) were prepared by injecting subcutaneously (s.c.) a suspension of MDA-MB-231 cells (8.0 × 10^5 cells/mouse) directly into the right thigh. The mice were kept on a regular chow diet and water, and maintained under a 12 h light/dark cycle in an ambient atmosphere. When the tumor diameter became 5 to 7 mm, the mice were injected via the tail vein with 200 µL PBS solution of Na[o-FESAN] (7.5 mg B/kg). […] After filtering through a hydrophobic filter, boron concentration was measured by inductively coupled plasma optical emission spectroscopy (ICP-OES) using an iCAP 7400 Duo elemental analyzer (Thermo Fisher Scientific Inc., Waltham, MA, USA).

MDA-MB-231 cells [2] = test: Morphological analysis by TEM; format: cell-based, human; conditions: MDA-MB-231, 50 µM, 24 h
Description: Transmission electron microscopy (TEM) was used to assess the structural integrity of MDA-MB-231 cells and to examine the effects at the organelle level before and 2 h after irradiation with proton beams (2.0 MeV).
MDA-MB-231 cells were seeded into 6-well plates at approx. 70% confluence. After 24 h, cells were treated with Na[o-FESAN] at 50 µM for 24 h. After incubation, cells were irradiated with a proton beam as described above and processed for TEM analysis 2 h later, following a previously described method. Briefly, the preparation of the cells included several steps of fixation: primary fixation with 3% glutaraldehyde in 0.1 M sodium cacodylate buffer, pH 7.3; secondary fixation with 1% osmium tetroxide in 0.1 M sodium cacodylate buffer, pH 7.3 for 3 h; tertiary fixation and contrasting with 0.5% uranyl acetate in the same buffer for 1 h, dehydration with ethanol and resin (Epon-Araldite) (Merck, Darmstadt, Germany) infiltration and embedding. The stained cells were then photographed and studied using a JEOL 100-SX electron microscope JEOL, Tokyo, Japan.

[3] = design: method as in PMID 36373493; conditions: cited from earlier work
SKBR-3 cells [4] = test: Viability and proliferation after thermal neutron irradiation (BNCT); format: cell-based, human; conditions: SKBR-3, 50 and 100 µM, 24 h, thermal neutrons 15 min at 30 kW, growth followed 10 days
Description: (§1) For neutron irradiation, SKBR-3 and MDA-MB-231 cells were incubated with Na[o-FESAN] at 50 and 100 µM and were irradiated with thermal neutrons at the Triga Mark II nuclear reactor at the University of Pavia. […] Both surviving SKBR-3 and MDA-MB-231 cells that were treated with Na[o-FESAN] […] This clearly indicates the important contribution of neutron capture to induce a long-term cytotoxic effect. Another important point is that the toxic effect was observed using Na[o-FESAN] containing natural B. In fact, the amount of internalized B measured by ICP-MS after 24 h incubation with 50 or 100 µM Na[o-FESAN] contained only 19.9% of the active ^10B isotope. Assuming that in the case of epithelial tumors (with a diameter ranging from 15–20 µm), a density of ca. 10^8 cells for cm^3 is a reasonable number, [76] from the data obtained by ICP-MS analysis, it was possible to calculate the amount of ^10B internalized in cells expressed in ppm (µg/g).
(§2) SKBR-3 and MDA-MB-231 cells were seeded in 25 cm^2 flasks (12 flasks for each cell line) at a density of 6.5 × 10^5 cells. […]
(§3) Twenty-four hours after irradiation, cells were detached with 0.05% trypsin and 0.02% EDTA, and cell viability was evaluated using the trypan blue exclusion test and reported as the percentage of cells observed in treated and/or irradiated samples with respect to that observed in control cells. […] The cell growth was followed for 10 days, and at pre-determined times, the cells were washed with PBS, detached with 0.05% trypsin and 0.02% EDTA, and transferred into falcon tubes. Then, cells were sonicated for 30 s at 30% power in ice, and the total cell protein concentration (that is, proportional to the number of cells) from cell lysates was determined by the Bradford method, using bovine serum albumin as a standard. The cell growth rate was calculated as follows: [(number of cells(ti) − number of cells(t0))/number of cells(t0)] × 100 where (ti) is the number of cells measured at the various time intervals and (t0) is the number of cells at the starting point (t = 0) of the proliferation assay.

MDA-MB-231 cells [5] = test: as above; format: cell-based, human
Description: as §1, §2, §3

SKBR-3 cells [6] = test: Intracellular ROS (H2DCF-DA) after proton irradiation; format: cell-based, human; conditions: SKBR-3, 50 and 100 µM, 24 h, protons 0.235 Gy, up to 48 h post-irradiation
Description: (§4) In non-irradiated cells (with/without treatment), no appreciable ROS formation was observed.
(§5) Intracellular ROS levels were measured using the 2′,7′-dichlorodihydrofluorescein diacetate (H2DCF-DA) fluorescent probe as previously described. […] Then, the probe (10 µM) in colorless DMEM medium (FluoroBrite™ DMEM, Gibco®, Waltham, MA, USA) was incubated with the cells for an additional 30 min. at 37 °C. Later, the medium was removed and replaced by a fresh one. The fluorescence intensity was continuously measured up to 48 h with a Varioskan LUX scanning multimode reader (Thermo Fisher Scientific, Waltham, MA, USA). Results of fluorescence (mean ± SD) were expressed as the fold change in fluorescence levels compared with controls (non-irradiated treated cells).

MDA-MB-231 cells [7] = test: as above; format: cell-based, human; conditions: MDA-MB-231, 50 and 100 µM, 24 h, protons 0.235 Gy, up to 48 h post-irradiation
Description: as §4, §5

SKBR-3 cells [8] = test: Cytotoxicity, MTT assay before irradiation; format: cell-based, human; conditions: SKBR-3, 24 h treatment
Description: (§6) The cytotoxicity of Na[o-FESAN] in breast cancer cells was evaluated to help the selection of the work concentrations for the uptake and irradiation studies. Moreover, the general requirements of therapeutic drugs include, among others, low cytotoxicity and high tumor uptake.
(§7) Before the irradiation studies, the concentrations of Na[o-FESAN] were selected. SKBR-3 and MDA-MB-231 cells were counted with a Neubauer chamber using Trypan Blue exclusion and a Zeiss Primovert microscope, seeded in 96-well plates (1–2 × 10^4 cells/200 µL medium) and incubated at 37 °C for 24 h to adhere. Then, the medium was discarded, and cells were incubated with Na[o-FESAN] at serial concentrations in complete medium in the range 1–300 µM for 24 h. After incubation, the cellular viability was determined using the MTT assay as previously described.

MDA-MB-231 cells [9] = test: Cytotoxicity, MTT assay before irradiation; format: cell-based, human; conditions: MDA-MB-231, 24 h treatment
Description: as §6, §7

[10] = design: method as in PMID 24737689, PMID 35470838; conditions: cited from earlier work

In the case of [3,3′-Fe(1,2-C2B9H11)2]^− [Na[o-FESAN]], the “Clearance in blood and main organs (heart, liver, lung, kidney, spleen, muscle)” value [1] is reported as “slow”, the Tumor uptake [1] is reported as “remained relatively high” and the “Cell morphology (TEM), no irradiation” value (MDA-MB-231 cells [2]) is reported as “moderate amount of vacuolization”. For the same substance, the “Cell morphology (TEM), 2 h after proton irradiation” value (MDA-MB-231 cells [2]; proton beam 2.0 MeV) was “necrosis”, the “Stability in cellular medium” value [3] was “did not suffer degradation” and the “Proliferation of surviving cells after neutron irradiation” value (SKBR-3 cells [4]) was “marked inhibition of proliferation”. The “Proliferation of surviving cells after neutron irradiation” value (MDA-MB-231 cells [5]; MDA-MB-231, 50 and 100 µM, 24 h, thermal neutrons 15 min at 30 kW, growth followed 10 days) was “marked inhibition of proliferation”, the “Number of viable cells after treatment and neutron irradiation vs non-treated irradiated cells” value (MDA-MB-231 cells [5]; MDA-MB-231, 24 h post irradiation, trypan blue) was “significantly different” and the “ROS levels after proton irradiation vs non-irradiated controls” value (SKBR-3 cells [6]) was “increased ROS levels in a dose-dependent manner”. The “ROS levels after proton irradiation vs non-irradiated controls” value (MDA-MB-231 cells [7]) was “increased ROS levels in a dose-dependent manner”, the IC50 (SKBR-3 cells [8]) was 83.5 ± 18.6 µM and the IC50 (MDA-MB-231 cells [9]) was 103 ± 24.9 µM. For the same substance, the Solubility in water [10] was “approx. 1 M”.
